Experimental data published in patent publication US20250230138A1, “COMPOUNDS HAVING A T-STRUCTURE FORMED BY AT LEAST FOUR CYCLES FOR USE IN THE TREATMENT OF CANCER AND OTHER INDICATIONS” (TheRas, Inc., priority 2022, published 2025).
Like-named read-outs stand apart in the source and are kept apart here.

Assays:
[1] = target: Cys242 in human PIK3CA (157-299) (Homo sapiens (Human), UniProt P42336); test: Covalent modification assay using MALDI-TOF MS; type: biochemical; conditions: 4 h reaction time point; 3.33 μM protein target, 1:7.5 protein to compound ratio (compounds 1-852)
Sequence of Cys242 in human PIK3CA (157-299) (P42336 157-299): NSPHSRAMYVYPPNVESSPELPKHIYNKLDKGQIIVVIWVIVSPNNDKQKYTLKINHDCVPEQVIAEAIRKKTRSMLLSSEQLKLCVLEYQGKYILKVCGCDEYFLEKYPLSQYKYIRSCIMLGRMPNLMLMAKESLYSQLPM
Outline: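 PIK3CA (157-299) at 3.33 μM or 1 μM in 20 mM HEPES, 150 mM NaCl, 2 mM MgCl2, pH 7.3 was incubated with compound (from 10 mM DMSO stocks) in the dark at room temperature for 15 min, 30 min, 2 h or 4 h. Linear-mode MALDI-TOF peak heights gave percent modification.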

pAKT in BT474 cells = test: Cell-based pAKT HTRF assay in BT474 cells; conditions: BT474 cells, 4 hr incubation, Compounds 10-999, read-out: pAKT inhibition IC50 in BT474 cells
Outline: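 9-pt curve, top 3 μM, 3-fold steps, 0.25% DMSO; 4 hr compound exposure. Lysis, then HTRF with d2/Eu Cryptate antibody pair, 4–24 h RT. Ex 320 nm, Em 615 nm.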

Compound | % of modification [1] | IC50 (pAKT in BT474 cells; Homo sapiens, BT-474) [nM] | IC50 (pAKT in BT474 cells) [nM]
C=CC(=O)N1CCn2nc(-c3nc(-c4ccc5c(c4)CCNC5=O)c4ccsc4c3-c3ccc(F)cc3OCCOC)cc2C1 [Compound 189, 6-[7-[4-fluoro-2-(2-methoxyethoxy)phenyl]-6-(5-prop-2-enoyl-6,7-dihydro-4H-pyrazolo[1,5-a]pyrazin-2-yl)thieno[3,2-c]pyridin-4-yl]-3,4-dihydro-2H-isoquinolin-1-one] | A (percent of modification of PIK3CA protein ≥75%) | < 100 | 
C=CC(=O)N1CCn2nc(-c3nc(-c4ccc5c(c4)CCN(C(C)C)C5)c4ccsc4c3-c3ccc(F)cc3OCCOC)cc2C1 [Compound 190, 1-[2-[7-[4-fluoro-2-(2-methoxyethoxy)phenyl]-4-(2-isopropyl-3,4-dihydro-1H-isoquinolin-6-yl)thieno[3,2-c]pyridin-6-yl]-6,7-dihydro-4H-pyrazolo[1,5-a]pyrazin-5-yl]prop-2-en-1-one] | A (percent of modification of PIK3CA protein ≥75%) | < 100 | 
C=CC(=O)N1CCn2nc(-c3nc(-c4cnn(C)c4)c4ccsc4c3-c3ccc(F)cc3OCCOC)nc2C1 [Compound 191] | A (percent of modification of PIK3CA protein ≥75%) |  | < 100
C=CC(=O)N1CCn2nc(-c3nc(-c4ccc5c(c4)C(O)CC5)c4ccsc4c3-c3ccc(F)cc3OCCOC)nc2C1 (stereo not shown) [Compound 192] | A (percent of modification of PIK3CA protein ≥75%) |  | < 100
C=CC(=O)N1CCn2nc(-c3nc(-c4ccnc(N)c4)c4ccsc4c3-c3ccc(F)cc3OCCOC)nc2C1 [Compound 193] | A (percent of modification of PIK3CA protein ≥75%) |  | < 100
C=CC(=O)N1CCn2nc(-c3nc(-c4cnn(C)c4)c4ccsc4c3-c3ccc(F)cc3OCCOC)cc2C1 [Compound 194, 1-[2-[7-[4-fluoro-2-(2-methoxyethoxy)phenyl]-4-(1-methylpyrazol-4-yl)thieno[3,2-c]pyridin-6-yl]-6,7-dihydro-4H-pyrazolo[1,5-a]pyrazin-5-yl]prop-2-en-1-one] | A (percent of modification of PIK3CA protein ≥75%) | < 100 | 
C=CC(=O)N1CCn2nc(-c3nc(-c4ccc(=O)n(C)c4)c4ccsc4c3-c3ccc(F)cc3OCCOC)cc2C1 [Compound 195, 5-[7-[4-fluoro-2-(2-methoxyethoxy)phenyl]-6-(5-prop-2-enoyl-6,7-dihydro-4H-pyrazolo[1,5-a]pyrazin-2-yl)thieno[3,2-c]pyridin-4-yl]-1-methyl-pyridin-2-one] | A (percent of modification of PIK3CA protein ≥75%) | < 100 | 
C=CC(=O)N1CC(n2cc(-c3nc(-c4ccc(S(=O)(=O)NC)cc4)c4ccsc4c3-c3ccc(F)cc3OC)cn2)C1 [Compound 196] | A (percent of modification of PIK3CA protein ≥75%) |  | 100 to 1000
C=CC(=O)N1CCn2nc(-c3nc(-c4ccnc(N)c4)c4ccsc4c3-c3ccc(F)cc3OCCO)nc2C1 [Compound 197] | A (percent of modification of PIK3CA protein ≥75%) |  | < 100
C=CC(=O)N1CCn2nc(-c3nc(N4CCC5(CC4)COC5)c4ccsc4c3-c3ccc(F)cc3OCCOC)cc2C1 [Compound 198, 1-[2-[7-[4-fluoro-2-(2-methoxyethoxy)phenyl]-4-(2-oxa-7-azaspiro[3.5]nonan-7-yl)thieno[3,2-c]pyridin-6-yl]-6,7-dihydro-4H-pyrazolo[1,5-a]pyrazin-5-yl]prop-2-en-1-one] | A (percent of modification of PIK3CA protein ≥75%) | < 100 | 
C=CC(=O)N1CCn2nc(-c3nc(-c4ccc5c(c4)CCNC5=O)c4ccsc4c3-c3ccc(F)cc3OC(C)C)cc2C1 [Compound 199, 6-[7-(4-fluoro-2-isopropoxy-phenyl)-6-(5-prop-2-enoyl-6,7-dihydro-4H-pyrazolo[1,5-a]pyrazin-2-yl)thieno[3,2-c]pyridin-4-yl]-3,4-dihydro-2H-isoquinolin-1-one] | A (percent of modification of PIK3CA protein ≥75%) | < 100 | 
C=CC(=O)N1CCn2nc(-c3nc(-c4cnn(C)c4)c4ccsc4c3-c3ccc(F)cc3OC(C)C)cc2C1 [Compound 200, 1-[2-[7-(4-fluoro-2-isopropoxy-phenyl)-4-(1-methylpyrazol-4-yl)thieno[3,2-c]pyridin-6-yl]-6,7-dihydro-4H-pyrazolo[1,5-a]pyrazin-5-yl]prop-2-en-1-one] | A (percent of modification of PIK3CA protein ≥75%) | < 100 | 
C=CC(=O)N1CCn2nc(-c3nc(-c4ccc(=O)n(C)c4)c4ccsc4c3-c3ccc(F)cc3OC(C)C)cc2C1 [Compound 201] | A (percent of modification of PIK3CA protein ≥75%) |  | < 100
C=CC(=O)N1CCn2nc(-c3nc(-c4cncc(C#N)c4)c4ccsc4c3-c3ccc(F)cc3OCCOC)cc2C1 [Compound 202] | A (percent of modification of PIK3CA protein ≥75%) |  | < 100
C=CC(=O)N1CCn2nc(-c3nc(-c4cncc(Cl)c4)c4ccsc4c3-c3ccc(F)cc3OCCOC)cc2C1 [Compound 203] | A (percent of modification of PIK3CA protein ≥75%) |  | < 100
C=CC(=O)N1CC(n2nc(-c3nc(-c4ccc5c(c4)CCNC5)c4ccsc4c3-c3ccc(F)cc3OCCOC)ccc2=O)C1 [Compound 204] | B (50%<percent of modification <75%) |  | 100 to 1000

Compound | % of modification [1] | IC50 (pAKT in BT474 cells; Homo sapiens, BT-474) [nM] | IC50 (pAKT in BT474 cells) [nM]
C=CC(=O)N1CCn2nc(-c3nc(-c4ccc(=O)n(C)c4)c4ccsc4c3-c3ccc(F)cc3OCCOC)nc2C1 [Compound 205] | A (percent of modification of PIK3CA protein ≥75%) |  | < 100
C=CC(=O)N1CCn2nc(-c3nc(-c4cnn(C)c4)c4ccsc4c3-c3ccc(F)cc3OC)cc2C1 [Compound 206, 1-[2-[7-(4-fluoro-2-methoxy-phenyl)-4-(1-methylpyrazol-4-yl)thieno[3,2-c]pyridin-6-yl]-6,7-dihydro-4H-pyrazolo[1,5-a]pyrazin-5-yl]prop-2-en-1-one] | A (percent of modification of PIK3CA protein ≥75%) | < 100 | 
C=CC(=O)N1CCn2nc(-c3nc(N4CCC5(CC4)COC5)c4ccsc4c3-c3ccc(F)cc3OC(C)C)cc2C1 [Compound 207] | A (percent of modification of PIK3CA protein ≥75%) |  | < 100
C=CC(=O)N1CCn2nc(-c3nc(N4CCN(C(C)C)CC4)c4ccsc4c3-c3ccc(F)cc3OC(C)C)cc2C1 [Compound 208] | A (percent of modification of PIK3CA protein ≥75%) |  | < 100
C=CC(=O)N1CCn2nc(-c3nc(N4CCN(C(C)C)CC4)c4ccsc4c3-c3ccc(F)cc3OCCOC)cc2C1 [Compound 209] | A (percent of modification of PIK3CA protein ≥75%) |  | < 100
C=CC(=O)N1CC(n2cc(-c3nc(-c4ccc5c(c4)CCNC5)c4ccsc4c3-c3ccc(F)cc3OCCOC)ncc2=O)C1 [Compound 210] | A (percent of modification of PIK3CA protein ≥75%) |  | < 100
C=CC(=O)N1CCn2nc(-c3nc(N4CCC5(CC4)CS(=O)(=O)C5)c4ccsc4c3-c3ccc(F)cc3OC(C)C)cc2C1 [Compound 211] | A (percent of modification of PIK3CA protein ≥75%) |  | < 100
C=CC(=O)N1CCn2nc(-c3nc(-c4cnn(C)c4)c4ccsc4c3-c3ccc(F)cc3OCC3CCNC(=O)C3)cc2C1 (stereo not shown) [Compound 212] | A (percent of modification of PIK3CA protein ≥75%) |  | < 100
C=CC(=O)N1CC[C@H](n2cc(-c3nc(-c4cnn(C)c4)c4ccsc4c3-c3ccc(F)cc3OCC3CCNC(=O)C3)ccc2=O)C1 (stereo partly shown) [Compound 213] | A (percent of modification of PIK3CA protein ≥75%) |  | 100 to 1000
C=CC(=O)N1CC[C@H](n2cc(-c3nc(-c4ccc5c(c4)CCNC5)c4ccsc4c3-c3ccc(F)cc3OCC3CCNC(=O)C3)ccc2=O)C1 (stereo partly shown) [Compound 214] | A (percent of modification of PIK3CA protein ≥75%) |  | 100 to 1000
C=CC(=O)N1CCc2nc(-c3nc(-c4ccc5c(c4)CCNC5)c4ccsc4c3-c3ccc(F)cc3OC(F)F)sc2C1 [Compound 215] | A (percent of modification of PIK3CA protein ≥75%) |  | 100 to 1000
C=CC(=O)N1CCn2nc(-c3nc(-c4cnn(C)c4)c4ccsc4c3-c3ccc(F)cc3OC(F)F)nc2C1 [Compound 216] | A (percent of modification of PIK3CA protein ≥75%) |  | 100 to 1000
C=CC(=O)N1CCn2nc(-c3nc(-c4ccnc(N)c4)c4ccsc4c3-c3ccc(F)cc3OC(F)F)nc2C1 [Compound 217] | A (percent of modification of PIK3CA protein ≥75%) |  | < 100
C=CC(=O)N1CCn2nc(-c3nc(-c4ccc5c(c4)CCN(C(C)C)C5)c4ccsc4c3-c3ccc(F)cc3OC(F)F)nc2C1 [Compound 218] | A (percent of modification of PIK3CA protein ≥75%) |  | < 100
C=CC(=O)N1CCn2nc(-c3nc(-c4ccc5c(c4)CCNC5=O)c4ccsc4c3-c3ccc(F)cc3OC(C)C)nc2C1 [Compound 219] | A (percent of modification of PIK3CA protein ≥75%) |  | < 100
C=CC(=O)N1CCn2nc(-c3nc(C4CCN(C(C)C)CC4)c4ccsc4c3-c3ccc(F)cc3OCCOC)cc2C1 [Compound 220] | A (percent of modification of PIK3CA protein ≥75%) |  | < 100
